Test systems include U251 CNS; MOLT-4 leukemia; RPMI-8226 leukemia; IGROV1 ovarian; HOP-92 NSCLC; HCT-15 colon; UACC-62 melanoma; 786-0 renal; T-47D breast; HOP-62 NSCLC.
What all share (experiment): growth of human tumour cells (NCI), 48 h

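Results reflect a 48-hour exposure of cells in 96-well plates to compound at five concentrations. Definition used: TGI = concentration required for complete inhibition of growth.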 Where a SMILES comes first, the peptide text is derived from it. The star is where a group is joined. Cbz = O=C(OCc1ccccc1)*; Boc = CC(C)(C)OC(=O)*; tBu = CC(C)(C)*

As to `COc1ccc(O)c(/C(C)=N/NC(=S)N(C)C)c1`, the TGI with U251 CNS, in the experiment on MOLT-4 leukemia, with RPMI-8226 leukemia, in the experiment with IGROV1 ovarian, in the experiment on HOP-92 NSCLC and in the experiment with HCT-15 colon was over 100 µM each time. Besides, the TGI with UACC-62 melanoma is over 71.6 µM; with 786-0 renal, over 100 µM; with T-47D breast, over 100 µM; with HOP-62 NSCLC, over 100 µM.
With `CC12CCC([C@H](C(O)C3CCCCC3)C1=O)C2(C)C` (stereo not given in full), the TGI in the experiment on U251 CNS, with MOLT-4 leukemia, in the experiment on RPMI-8226 leukemia, with IGROV1 ovarian, with HOP-92 NSCLC and with HCT-15 colon was over 100 µM in each case. For the same compound, the TGI in the experiment with UACC-62 melanoma, with 786-0 renal, in the experiment on T-47D breast and in the experiment on HOP-62 NSCLC was over 100 µM throughout.
`COC(=O)C1C(=O)C=CN([C@H](C)c2ccccc2)[C@@H]1Cc1ccc(OC)c(OCc2ccccc2)c1I` (stereo not given in full): the TGI in the experiment with U251 CNS is 39.7 µM; in the experiment with MOLT-4 leukemia, over 100 µM; in the experiment on RPMI-8226 leukemia, over 100 µM; in the experiment with IGROV1 ovarian it was 29.5 µM; in the experiment with HOP-92 NSCLC, 17.4 µM; in the experiment with HCT-15 colon it was 27 µM. For the same compound, the TGI worked out at 25.7 µM in the experiment with UACC-62 melanoma, 34.4 µM with 786-0 renal, 60.9 µM in the experiment with T-47D breast and 52.4 µM in the experiment with HOP-62 NSCLC.
As for `NC(=S)Nc1ccc(S(=O)(=O)Nc2ccc(S(N)(=O)=O)cc2)cc1`, the TGI with U251 CNS, in the experiment on MOLT-4 leukemia, with RPMI-8226 leukemia, in the experiment on IGROV1 ovarian, with HOP-92 NSCLC and in the experiment with HCT-15 colon was over 100 µM in each case. Further, the TGI in the experiment with UACC-62 melanoma, in the experiment with 786-0 renal, in the experiment with T-47D breast and in the experiment on HOP-62 NSCLC was over 100 µM throughout.
Turning to `NC(N)=N/N=C/c1c(-c2cccc([N+](=O)[O-])c2)nc2n1CCS2`, the TGI is 41.7 µM in the experiment on U251 CNS; 29.8 µM with MOLT-4 leukemia; over 100 µM with RPMI-8226 leukemia; 30.9 µM in the experiment on IGROV1 ovarian; 39.7 µM with HOP-92 NSCLC; over 100 µM in the experiment with HCT-15 colon. Moreover, the TGI in the experiment with UACC-62 melanoma was 39 µM; in the experiment with 786-0 renal, over 100 µM; with T-47D breast, 26.1 µM; in the experiment with HOP-62 NSCLC it was over 100 µM.
With `NCCCCC(N)C(=O)NCCNc1ccc(NCCNC(=O)C(N)CCCCN)c2c1C(=O)c1ccccc1C2=O` (stereo not given), the TGI in the experiment with U251 CNS, in the experiment on MOLT-4 leukemia, in the experiment on RPMI-8226 leukemia, with IGROV1 ovarian, in the experiment on HOP-92 NSCLC and with HCT-15 colon was over 100 µM throughout. The TGI in the experiment with UACC-62 melanoma, in the experiment on 786-0 renal, in the experiment on T-47D breast and with HOP-62 NSCLC was over 100 µM each time.
Turning to `CC(=O)OCCOCn1cnc2c(Cl)nc(Cl)nc21`, the TGI with U251 CNS worked out at 29.2 µM; in the experiment with MOLT-4 leukemia it was 40 µM; in the experiment on RPMI-8226 leukemia it was 33.5 µM; in the experiment on IGROV1 ovarian it was 30.6 µM; in the experiment on HOP-92 NSCLC, 3.37 µM; in the experiment with HCT-15 colon, 14.5 µM. The TGI with UACC-62 melanoma amounted to 30.1 µM; in the experiment with 786-0 renal, 58 µM; in the experiment with T-47D breast, 25.6 µM; in the experiment on HOP-62 NSCLC, 36.4 µM.
Consider `CCN(CC)CC(=O)O[C@]1(CC)C(=O)OCc2c1cc1n(c2=O)Cc2cc3ccccc3nc2-1`, for which the TGI in the experiment on U251 CNS stood at 0.221 µM; in the experiment on MOLT-4 leukemia, 0.0749 µM; with RPMI-8226 leukemia it was 1.85 µM; in the experiment on IGROV1 ovarian, 1.04 µM; with HOP-92 NSCLC, 2.12 µM; in the experiment with HCT-15 colon, 3.93 µM. For the same compound, the TGI in the experiment with UACC-62 melanoma is 0.0261 µM; in the experiment on 786-0 renal, 0.13 µM; in the experiment on T-47D breast, 0.404 µM; with HOP-62 NSCLC it was under 0.048 µM.
With `CN(C)CCCN1c2ccccc2Sc2cnccc21`, the TGI in the experiment with U251 CNS, with MOLT-4 leukemia, with RPMI-8226 leukemia, in the experiment with IGROV1 ovarian, in the experiment on HOP-92 NSCLC and in the experiment on HCT-15 colon was over 100 µM throughout. In addition, the TGI in the experiment on UACC-62 melanoma, in the experiment on 786-0 renal, in the experiment on T-47D breast and with HOP-62 NSCLC was over 100 µM throughout.
Regarding `CC(OC(C)(C)C)C(NC(=O)C(CCCCNC(=O)OC(C)(C)C)NC(=O)C(Cc1c[nH]c2ccccc12)NC(=O)C(Cc1ccccc1)NC(=O)OCc1ccccc1)C(=O)NC(Cc1ccccc1)C(=O)O` (stereo not given) (Cbz-FWK(Boc)T(tBu)F-OH; configuration not given here), the TGI with U251 CNS is over 100 µM; in the experiment with MOLT-4 leukemia, over 100 µM; in the experiment with RPMI-8226 leukemia, over 100 µM; with IGROV1 ovarian it was 98.9 µM; in the experiment on HOP-92 NSCLC, over 100 µM; in the experiment on HCT-15 colon it was over 100 µM. Moreover, the TGI is 67.9 µM in the experiment with UACC-62 melanoma, over 100 µM with 786-0 renal, 73.6 µM with T-47D breast and over 100 µM with HOP-62 NSCLC.
`O=c1oc2cc(O)ccc2c(O)c1C(c1ccccc1F)c1c(O)c2ccc(O)cc2oc1=O`: the TGI in the experiment on U251 CNS is over 100 µM; in the experiment on MOLT-4 leukemia, over 100 µM; with RPMI-8226 leukemia, 83.4 µM; in the experiment with IGROV1 ovarian, over 100 µM; in the experiment on HOP-92 NSCLC it was over 100 µM; in the experiment on HCT-15 colon it was over 100 µM. For the same compound, the TGI in the experiment with UACC-62 melanoma, with 786-0 renal, in the experiment with T-47D breast and in the experiment on HOP-62 NSCLC was over 100 µM each time.
Regarding `COc1ccc(CCN2CCN(CCc3ccc(OC)cc3)CC2)cc1`, the TGI in the experiment on U251 CNS, in the experiment on MOLT-4 leukemia, in the experiment on RPMI-8226 leukemia, in the experiment on IGROV1 ovarian, in the experiment on HOP-92 NSCLC and in the experiment with HCT-15 colon was over 100 µM throughout. Also, the TGI in the experiment on UACC-62 melanoma, in the experiment on 786-0 renal, in the experiment with T-47D breast and in the experiment with HOP-62 NSCLC was over 100 µM in each case.
With `c1ccc2c(c1)nc1n2CNC1`, the TGI in the experiment with U251 CNS, in the experiment on MOLT-4 leukemia, in the experiment on RPMI-8226 leukemia, in the experiment with IGROV1 ovarian, with HOP-92 NSCLC and in the experiment with HCT-15 colon was over 100 µM in each case. Besides, the TGI in the experiment with UACC-62 melanoma, with 786-0 renal, in the experiment with T-47D breast and in the experiment on HOP-62 NSCLC was over 100 µM throughout.
Turning to `Cc1ccc(/C=C2\CCC/C(=C\c3ccc(O)c(CN4CCCCC4)c3)C2=O)cc1`, the TGI in the experiment on U251 CNS was 37.6 µM; with MOLT-4 leukemia, 9.03 µM; in the experiment with RPMI-8226 leukemia it was over 100 µM; with IGROV1 ovarian it was 26.5 µM; in the experiment with HOP-92 NSCLC it was 25.2 µM; with HCT-15 colon, 18.3 µM. Besides, the TGI in the experiment with UACC-62 melanoma was 9.92 µM; with 786-0 renal it was 14.3 µM; with T-47D breast it was 60.2 µM; in the experiment with HOP-62 NSCLC, over 51.7 µM.
In the case of `O=C1CCCC2(c3ccccc3)Nc3ccccc3N12` (stereo not given), the TGI with U251 CNS, in the experiment with MOLT-4 leukemia, with RPMI-8226 leukemia, in the experiment with IGROV1 ovarian, in the experiment on HOP-92 NSCLC and with HCT-15 colon was over 100 µM in each case. Also, the TGI in the experiment on UACC-62 melanoma, in the experiment with 786-0 renal, in the experiment on T-47D breast and in the experiment on HOP-62 NSCLC was over 100 µM in each case.
With `Cc1[nH]n(C2=NCCN2)c(=O)c1Cc1ccccc1`, the TGI in the experiment with U251 CNS, in the experiment with MOLT-4 leukemia, with RPMI-8226 leukemia, in the experiment with IGROV1 ovarian, in the experiment with HOP-92 NSCLC and in the experiment on HCT-15 colon was over 100 µM throughout. In addition, the TGI in the experiment with UACC-62 melanoma, in the experiment on 786-0 renal, in the experiment with T-47D breast and in the experiment on HOP-62 NSCLC was over 100 µM throughout.
As for `Cc1ccc(N=Nc2c(C)c(C#N)c(=S)n(C3OC(CO)C(O)C(O)C3O)c2C)cc1` (stereo not given), the TGI with U251 CNS was 52.6 µM; with MOLT-4 leukemia it was 48.6 µM; in the experiment with RPMI-8226 leukemia, over 100 µM; in the experiment on IGROV1 ovarian it was over 100 µM; in the experiment with HOP-92 NSCLC it was 49.3 µM; in the experiment on HCT-15 colon, over 100 µM. Besides, the TGI in the experiment with UACC-62 melanoma was 29 µM; in the experiment with 786-0 renal, 83.8 µM; in the experiment on T-47D breast, 46 µM; with HOP-62 NSCLC it was 84.9 µM.
Regarding `COC(=O)CCc1cc(O)c2c(c1)C(C(=O)OC)C(c1ccc(O)c(O)c1)O2` (stereo not given), the TGI with U251 CNS was over 95 µM; in the experiment on MOLT-4 leukemia it was over 88.8 µM; in the experiment on RPMI-8226 leukemia, over 92.9 µM; in the experiment with IGROV1 ovarian, over 92.5 µM; with HOP-92 NSCLC, over 100 µM; in the experiment with HCT-15 colon, over 100 µM. Besides, the TGI in the experiment with UACC-62 melanoma was over 100 µM; with 786-0 renal it was over 100 µM; with T-47D breast, over 72.3 µM; in the experiment on HOP-62 NSCLC, over 100 µM.
`Cc1cc(C)n(C2OC(CO)C(O)C(O)C2O)c(=S)c1C#N` (stereo not given): the TGI with U251 CNS, in the experiment on MOLT-4 leukemia, with RPMI-8226 leukemia, in the experiment with IGROV1 ovarian, in the experiment with HOP-92 NSCLC and with HCT-15 colon was over 100 µM throughout. For the same compound, the TGI in the experiment on UACC-62 melanoma, in the experiment with 786-0 renal, in the experiment on T-47D breast and in the experiment on HOP-62 NSCLC was over 100 µM in each case.
For `COc1ccc(C2=Nn3c(nnc(Cc4ccc(Cl)cc4)c3=O)SC2)cc1`, the TGI in the experiment on U251 CNS, with MOLT-4 leukemia, in the experiment with RPMI-8226 leukemia, in the experiment with IGROV1 ovarian, in the experiment on HOP-92 NSCLC and with HCT-15 colon was over 100 µM throughout. The TGI in the experiment with UACC-62 melanoma, with 786-0 renal, in the experiment with T-47D breast and in the experiment with HOP-62 NSCLC was over 100 µM each time.
